From patent US11919912B2, “Modulators of methyl modifying enzymes, compositions and uses thereof” (Constellation Pharmaceuticals, Inc., priority 2018, dated 2024) come the findings set out here.

Experiment [1] concerns the target T1, PRC2 containing wt EZH2 (Homo sapiens, UniProt Q15910).
T1 construct: made in house
Kind of experiment: EZH2 biochemical assay (IC50), incorporation of 3H-SAM into a biotinylated H3 peptide. As to conditions: 30 pM PRC2 (wt EZH2, pentameric complex), pre-incubated 3-5 h, reaction 18-22 h. On the procedure: EZH2 biochemical assay (IC50): Compound potencies were assessed through incorporation of ^3H-SAM into a biotinylated H3 peptide. […] Quenching was accomplished by addition of 20 μl of STOP solution (50 mM Tris (pH 8.5), 200 mM EDTA, 2 mM SAH). 35 μl of the quenched solution was transferred to streptavidin coated FlashPlates (PerkinElmer), incubated 1-2 h, washed, and read in a TopCount Reader (PerkinElmer).

For experiment [2], the system named is Karpas-422 cell lines. Briefly: Karpas-422 viability assay (Cell Titer-Glo). The class given is cell-based. The settings on record: Homo sapiens, Cell Titer-Glo on Day 8, cells split every 4 days. As for the experimental part: Karpas-422 cell lines were obtained from DSMZ (Braunschweig, Germany) and were grown in RPMI-1640 media. All media contained 10% fetal bovine serum (FBS) and 1% penicillin/streptomycin (Invitrogen). 20K cells per well were plated onto 96 well compound coated plates. Cells were split and seeded at original plating density (based on the DMSO well counts) every 4 days into plates containing fresh EZH2 inhibitors. Relative cell numbers were assessed by Cell Titer-Glo luminescent cell viability assay (Promega) on Day 8. GraphPad Prism 5 was used for curve fitting and GI50 values were reported.

For experiment [3], the system named is H3K27me3 in Hela cells. Kind of experiment: H3K27me3 Alpha Hela Assay (AlphaLISA). The format is cell-based. As to conditions: Homo sapiens, 72 hrs. On the procedure:
H3K27me3 Alpha Hela Assay (AlphaLISA). Ten different doses of each test compound (in a series of 3-fold dilutions) were plated in duplicate 384-well tissue culture treated plates (Catalog #6007680; Perkin Elmer, Waltham, MA). Hela cells grown in culture were trypsinized and counted using a Countess® cell counter (Catalog #C10281; Life Technologies, Grand Island, NY). Cell were diluted to 67,000 cells per mL in10% DMEM (Catalog #10569-010 Life Technologies, Grand Island, NY) and 15 μL (1,000 cells) were plated into each well using the Biotek MicroFlo™ Select Dispenser (BioTek Instruments, Inc. Vermont, USA),) of the 384-well plate. Plates were incubated at 37° C./5% CO2 for 72 hrs. One of the duplicate plates was processed for HeLa assay and the other for viability. […] The plates were then read using an EnVision-Alpha Reader (model #2104 Perkin Elmer; Waltham, MA).
Cell viability was assayed by adding 15 μL of Cell Titer Glo ((Catalog #G9241 Promega Madison, WI) to each well with cells with media. The plates were incubated at RT for 15-20 minutes on a plate shaker at low speed. The plates were then read using an EnVision-Alpha Reader (model #2104 Perkin Elmer; Waltham, MA).

T1 sequence (Q15910 whole entry): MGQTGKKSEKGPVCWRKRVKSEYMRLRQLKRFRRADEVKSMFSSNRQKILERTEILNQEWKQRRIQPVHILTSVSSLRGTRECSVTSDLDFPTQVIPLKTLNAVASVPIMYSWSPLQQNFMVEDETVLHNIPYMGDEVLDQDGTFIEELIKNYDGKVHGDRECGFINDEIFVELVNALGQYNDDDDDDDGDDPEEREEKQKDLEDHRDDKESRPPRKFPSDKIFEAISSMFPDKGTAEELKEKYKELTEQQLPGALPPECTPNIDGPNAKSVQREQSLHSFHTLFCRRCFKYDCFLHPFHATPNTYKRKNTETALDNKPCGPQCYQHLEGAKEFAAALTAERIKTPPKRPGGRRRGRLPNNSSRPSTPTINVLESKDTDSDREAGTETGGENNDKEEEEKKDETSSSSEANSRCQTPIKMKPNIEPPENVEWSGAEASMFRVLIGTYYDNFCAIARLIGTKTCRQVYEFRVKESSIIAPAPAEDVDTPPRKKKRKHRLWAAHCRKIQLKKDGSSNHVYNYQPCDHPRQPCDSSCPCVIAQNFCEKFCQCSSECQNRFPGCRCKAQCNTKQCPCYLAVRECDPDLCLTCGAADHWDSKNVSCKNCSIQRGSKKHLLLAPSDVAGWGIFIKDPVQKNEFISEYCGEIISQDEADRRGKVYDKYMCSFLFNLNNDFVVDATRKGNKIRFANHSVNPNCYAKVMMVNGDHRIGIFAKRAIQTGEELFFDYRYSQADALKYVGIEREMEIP
T1 sequence (O75530 whole entry partner): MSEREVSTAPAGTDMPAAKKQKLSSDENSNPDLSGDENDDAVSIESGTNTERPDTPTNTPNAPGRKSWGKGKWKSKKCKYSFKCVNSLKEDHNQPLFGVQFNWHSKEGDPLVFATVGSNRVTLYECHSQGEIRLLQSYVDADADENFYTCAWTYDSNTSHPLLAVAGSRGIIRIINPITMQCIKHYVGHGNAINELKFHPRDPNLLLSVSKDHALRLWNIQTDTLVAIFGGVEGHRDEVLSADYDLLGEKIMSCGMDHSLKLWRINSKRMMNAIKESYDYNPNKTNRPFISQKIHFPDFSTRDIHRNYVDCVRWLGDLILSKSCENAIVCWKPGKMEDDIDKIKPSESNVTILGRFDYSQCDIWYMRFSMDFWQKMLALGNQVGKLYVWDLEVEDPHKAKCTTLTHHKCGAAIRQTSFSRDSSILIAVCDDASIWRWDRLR
T1 sequence (Q15022 whole entry partner): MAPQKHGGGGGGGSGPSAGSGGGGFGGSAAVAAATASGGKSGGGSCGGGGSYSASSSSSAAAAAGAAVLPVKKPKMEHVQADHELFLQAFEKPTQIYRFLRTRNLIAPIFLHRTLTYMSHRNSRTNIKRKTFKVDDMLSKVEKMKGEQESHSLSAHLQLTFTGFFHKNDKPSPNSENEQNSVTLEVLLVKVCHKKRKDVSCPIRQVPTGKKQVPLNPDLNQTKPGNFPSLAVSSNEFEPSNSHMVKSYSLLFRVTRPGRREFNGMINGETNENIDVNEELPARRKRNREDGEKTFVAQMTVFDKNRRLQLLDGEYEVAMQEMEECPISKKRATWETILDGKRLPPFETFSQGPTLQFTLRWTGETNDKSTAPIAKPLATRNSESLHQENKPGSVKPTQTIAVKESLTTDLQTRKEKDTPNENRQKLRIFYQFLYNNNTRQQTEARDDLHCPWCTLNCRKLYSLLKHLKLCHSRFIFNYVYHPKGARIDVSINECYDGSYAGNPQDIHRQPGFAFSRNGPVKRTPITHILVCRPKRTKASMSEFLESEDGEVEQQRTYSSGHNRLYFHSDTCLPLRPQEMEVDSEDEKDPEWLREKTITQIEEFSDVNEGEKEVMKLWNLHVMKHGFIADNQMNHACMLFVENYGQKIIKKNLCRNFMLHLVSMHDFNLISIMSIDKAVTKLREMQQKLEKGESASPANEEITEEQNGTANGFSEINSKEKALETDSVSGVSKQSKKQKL
T1 sequence (Q09028 whole entry partner): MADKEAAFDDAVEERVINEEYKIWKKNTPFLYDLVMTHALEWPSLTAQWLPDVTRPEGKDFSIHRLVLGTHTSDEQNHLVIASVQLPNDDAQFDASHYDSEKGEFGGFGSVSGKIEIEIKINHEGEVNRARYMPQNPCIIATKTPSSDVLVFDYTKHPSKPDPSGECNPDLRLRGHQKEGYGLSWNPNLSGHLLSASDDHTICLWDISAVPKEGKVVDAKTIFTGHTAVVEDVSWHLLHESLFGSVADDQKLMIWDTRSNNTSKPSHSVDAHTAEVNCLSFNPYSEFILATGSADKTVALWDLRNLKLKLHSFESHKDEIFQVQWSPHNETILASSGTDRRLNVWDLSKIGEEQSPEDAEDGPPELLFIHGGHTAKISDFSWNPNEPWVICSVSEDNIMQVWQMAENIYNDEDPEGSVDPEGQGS
T1 sequence (Q6ZN18 whole entry partner): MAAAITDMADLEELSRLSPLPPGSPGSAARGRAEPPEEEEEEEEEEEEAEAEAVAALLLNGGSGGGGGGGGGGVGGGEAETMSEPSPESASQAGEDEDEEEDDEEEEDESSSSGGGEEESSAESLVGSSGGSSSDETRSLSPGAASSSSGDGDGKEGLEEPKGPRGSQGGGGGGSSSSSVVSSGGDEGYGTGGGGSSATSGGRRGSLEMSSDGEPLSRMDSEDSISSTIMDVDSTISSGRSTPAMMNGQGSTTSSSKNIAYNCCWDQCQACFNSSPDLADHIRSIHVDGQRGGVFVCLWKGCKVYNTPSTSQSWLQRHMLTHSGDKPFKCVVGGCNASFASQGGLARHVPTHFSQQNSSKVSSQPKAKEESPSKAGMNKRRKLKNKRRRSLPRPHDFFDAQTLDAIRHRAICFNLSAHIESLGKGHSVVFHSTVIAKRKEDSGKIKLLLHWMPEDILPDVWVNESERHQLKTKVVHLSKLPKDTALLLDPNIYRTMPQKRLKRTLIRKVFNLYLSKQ

Usually IC50 stands for the concentration needed to halve the response being measured. Higher therefore signals weaker potency. Turning to `CSc1cc(C)[nH]c(=O)c1Cn1ccc2c(Cl)c3c(c(C)c2c1=O)OC(C)([C@H]1CC[C@H](N(C)C)CC1)O3` (mixture of isomers) [Example 2, 9-Chloro-2-(Trans-4-(Dimethylamino)Cyclohexyl)-2,4-Dimethyl-6-((6-Methyl-4-(Methylthio)-2-Oxo-1,2-Dihydropyridin-3-Yl)Methyl)-[1,3]Dioxolo[4,5-g]Isoquinolin-], in experiment [1], the IC50 was in the range of 0.061 to 0.073 nM.

By GI50 is commonly meant the concentration at which growth is held to half of that of the control. High values mean lower sensitivity of the cells, low ones greater sensitivity of the cells. What is called EC50 is the concentration that produces a half-maximal response. Consider `CSc1cc(C)[nH]c(=O)c1CN1CCc2c(Cl)c3c(c(C)c2C1=O)OC(C)([C@H]1CC[C@H](N(C)C)CC1)O3` (single isomer, unassigned) [Example 1, Peak 1, 9-Chloro-2-(Trans-4-(Dimethylamino)Cyclohexyl)-2,4-Dimethyl-6-((6-Methyl-4-(Methylthio)-2-Oxo-1,2-Dihydropyridin-3-Yl)Methyl)-7,8-Dihydro-[1,3]Dioxolo[4,5-g]Isoquinolin-5(6H)-One], for which the GI50 in experiment [2] was determined as 5.7 nM. Further, in experiment [3], the EC50 lay in the range of 0.849 to 1.13 nM.
